These results are taken from patent publication US11926841B2, “AAV-based conditional expression system” (priority 2016, dated 2024).

Assay type in all cases: cell-based
Test [1] deals with ACV sensitive HSV-1 laboratory strain. Briefly: Endpoint dilution assay (TCID50) of supernatants of ACV treated infected LE2D8 cells, sensitive HSV-1. As to conditions: ACV 1, 6, 12, 48 and 96 μg/ml; counts at day 7. The source says: (§1) For the validation of the new established replicon based assay we made an endpoint-dilution-assay to monitor the amount of the produced viruses in presence of the ACV treatment. This standardised assay for detection of viral growth is very sensitive but very time consuming since 5-7 days are required to obtain the results. To test the virus production in our assay condition with the standard method the sensitive and ACV-resistant HSV-1 containing assay supernatants of the infected LE2D8 cells treated with different concentrations of ACV (n.t., 1, 6, 12, 48 and 96 μg/ml) were collected. Subsequently endpoint dilution assays were performed using HEK-cells in a 96 well plate format. The Tissue Culture Infection Dose 50 (TCID50) was calculated after collecting the infectivity counts at day 7 (FIG. 5B).

Test [2] has as its system ACV resistant HSV-2 isolate. The test is described as follows: AAV replicon based resistance test with clinical HSV-2 isolates, resistant isolate. As to conditions: ACV 0.8, 4, 20, 100 and 500 μM; LE2D8 cells; 48 hpi. How it is done: (§2) For testing the single HSV-2 virus isolates, LE2D8 were seeded to 3.3×10^4 cells in a 96 well format, 2 hours before treatment with 0.8, 4, 20, 100 and 500 μM ACV and infection with 1:10 diluted HSV-2 isolates, always using technical triplicates. After 48 hpi, GLuc activity in the supernatant was measured by luminometry and values were compared to non-treated and mock infected cells as above. In FIGS. 6A and 6B we show example of the replicon response induced by an ACV sensitive HSV2- and one of an ACV resistant HSV-2 isolate.
(In general: Replicon systems follow genome replication, usually without infectious particles.)

The subject of the next test is ACV-resistant HSV-1. Briefly: Endpoint dilution assay (TCID50) of supernatants of ACV treated infected LE2D8 cells, resistant HSV-1. As to conditions: ACV 1, 6, 12, 48 and 96 μg/ml; counts at day 7.
Description: as §1

Test [3] deals with wild type ACV sensitive HSV-1 laboratory strain. The test is described as follows: AAV replicon based ACV resistance test in LE2D8 cells (GLuc luciferase readout), sensitive HSV-1. As to conditions: ACV 6-12 μg/mi, MOI 0.035, 48 hpi. How it is done: The cell line LE2D8 was seeded onto 96-well-plates at density of 3.3×10^4 cell/well. Two hours after seeding the cells were left untreated or were treated with different concentrations of ACV (CAS: 59277-89-3) (ranging from 0.05 to 144 μg/ml). Right after treatment the cells were infected with either a wild type ACV sensitive HSV-1 laboratory strain or an ACV resistant strain (kindly provided from Dr. Gundula Jäger, Max von Pettenkofer-Institute, LMU Munich) using an MOI of 0.035. After only 48 hpi luciferase activity in 20 μl of the supernatant was measured as the previous experiments. The luciferase activities of the ACV treated cells were compared to the luciferase activities obtained after infection of the non-treated cells. The luciferase induction of the non-treated cells was set 100% and the activity of the ACV treated cells was depicted as % of the non-treated values (FIG. 5A).

The test system of test [4] is ACV sensitive HSV-2 isolate. Briefly: AAV replicon based resistance test with clinical HSV-2 isolates, sensitive isolate. As to conditions: ACV 20 μM and higher; LE2D8 cells; 48 hpi. How it is done: as §2

SMILES strings stand for the structures. Bounds are passed on as bounds.

On to `Nc1nc2c(ncn2COCCO)c(=O)[nH]1` [ACV, Aciclovir], for which the “virus replication under ACV treatment (TCID50, endpoint dilution)” value in test [1] is “indeed inhibited by ACV treatment”; in the test with ACV-resistant HSV-1, “could not inhibit the replication”. In addition, in test [2], the “GLuc induction, % of the non-treated values” was at least 50%. Further, the “luciferase activity, % of non-treated cells” value in test [3] is 20%. For the same compound, in test [4], the “GLuc activity compared to non-treated cells” value is given as “decreasing amounts of GLuc activity”.
